In one test the target is CDK2/CycA2 (Homo sapiens, UniProt P24941). The test is described as follows: CDK2 mobility shift assay (enzymatic activity of CDK2/CycA2). Particulars: 1.25 nM CDK2/CycA2, 37 μM ATP, FL Peptide 18, 120 min at room temperature; read-out: CDK2 IC50. Type of test: biochemical. An outline of the steps: (§1)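 Phosphorylation of 1.5 μM fluorescent peptide was read by microfluidic mobility shift and fitted to IC50 (4-parameter), normalized to no-compound and no-enzyme controls. CDK5/p25 ran at 0.154 nM with […] ATP for 60 min, using peptide 29. CDK2/CycA2 ran at 1.25 nM with 37 μM ATP for 120 min, using peptide 18. Both included a 30-min compound preincubation in pH 7.5 buffer.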

The target in a further test is CDK5/p25 (Homo sapiens, UniProt Q00535). The test is described as follows: CDK5 mobility shift assay (enzymatic activity of CDK5/p25). Type of test: biochemical. As to conditions: for IC50: 0.154 nM CDK5/p25, FL peptide 29, 60 min at room temperature, read-out: CDK5 IC50; for CDK5/CDK2 specificity: fold more active against CDK5 than CDK2. In outline:
as §1

The term IC50 denotes the concentration at which inhibition is half-maximal.

Molecules are shown by their SMILES.

Sequence of CDK5/p25 (Q00535 whole entry): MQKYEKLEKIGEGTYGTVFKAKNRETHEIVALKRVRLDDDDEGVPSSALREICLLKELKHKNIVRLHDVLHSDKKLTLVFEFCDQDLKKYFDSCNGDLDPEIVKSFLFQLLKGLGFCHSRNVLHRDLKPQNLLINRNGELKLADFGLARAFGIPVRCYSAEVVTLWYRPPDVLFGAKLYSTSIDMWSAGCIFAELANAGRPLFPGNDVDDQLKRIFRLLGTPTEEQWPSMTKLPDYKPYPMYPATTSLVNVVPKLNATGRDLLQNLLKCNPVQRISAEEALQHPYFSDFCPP
Sequence of CDK5/p25 (Q15078 99-307 partner limits assumed): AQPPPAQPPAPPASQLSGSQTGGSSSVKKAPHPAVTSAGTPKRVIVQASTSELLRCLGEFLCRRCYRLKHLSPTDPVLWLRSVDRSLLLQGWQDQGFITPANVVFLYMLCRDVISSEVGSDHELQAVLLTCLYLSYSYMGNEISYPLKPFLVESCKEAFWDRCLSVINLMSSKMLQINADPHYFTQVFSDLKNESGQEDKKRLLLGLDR

As for `CN1CCC(C(C)(O)c2ccc3cnc(Nc4ccc(-c5cccnc5)cc4F)cc3n2)CC1` (stereo not drawn) [Compound 327], the IC50 on CDK2/CycA2 was above 1000 nM. At CDK5/p25, the IC50 fell in the range of 100 to 1000 nM; the CDK5/CDK2 specificity entry was “++ (greater than 10-fold and less than or equal to 100-fold more active against CDK5 than CDK2)”.
Turning to `O=C(O)[C@@H]1CNCC[C@H]1Nc1ccc2cnc(Nc3ccc(-n4ccc(CO)n4)cc3F)cc2n1` [Compound 114, (3R,4R)-4-[[7-([2-fluoro-4-[3-(hydroxymethyl)pyrazol-1-yl]phenyl]amino)-1,6-naphthyridin-2-yl]amino]piperidine-3-carboxylic acid], the IC50 on CDK2/CycA2 was above 1000 nM. On CDK5/p25, the IC50 is above 1000 nM and the CDK5/CDK2 specificity entry was “+ (10-fold or less more active against CDK5 than CDK2)”.
Consider `COc1cc(-c2ccc(Nc3cc4nc(C(C)C5CCN(C)CC5)ccc4cn3)c(F)c2)ccn1` (stereo not drawn) [Compound 339], for which the 50% inhibitory concentration (IC50) on CDK2/CycA2 was above 1000 nM. Further, on CDK5/p25, the IC50 is 10 to 100 nM; the CDK5/CDK2 specificity entry was “++ (greater than 10-fold and less than or equal to 100-fold more active against CDK5 than CDK2)”.
With `CN1CCC(S(=O)(=O)c2ccc3cnc(Nc4ccc(-c5ccc(F)cc5)cc4F)cc3n2)CC1` [Compound 183, N-{3,4′-difluoro-[1,1′-biphenyl]-4-yl}-2-(1-methylpiperidin-4-ylsulfonyl)-1,6-naphthyridin-7-amine], the 50% inhibitory concentration (IC50) on CDK2/CycA2 was above 1000 nM. For the same compound, at CDK5/p25, the IC50 is below 10 nM and the CDK5/CDK2 specificity result is on record as “+++ (greater than 100-fold more active against CDK5 than CDK2)”.
As for `CN1CCC(C(F)(F)c2ccc3cnc(Nc4ccc(-n5cccn5)cc4F)cc3n2)CC1` [Compound 291, 2-[difluoro(1-methylpiperidin-4-yl)methyl]-N-[2-fluoro-4-(pyrazol-1-yl)phenyl]-1,6-naphthyridin-7-amine], the half-maximal inhibitory concentration (IC50) at CDK2/CycA2 lay in the range of 10 to 100 nM. Besides, at CDK5/p25, the half-maximal inhibitory concentration (IC50) was below 10 nM; the CDK5/CDK2 specificity entry was “++ (greater than 10-fold and less than or equal to 100-fold more active against CDK5 than CDK2)”.
In the case of `CN1CCC(NS(=O)(=O)c2ccc3cnc(Nc4ccc(-n5ccc(CO)n5)cc4F)cc3n2)CC1` [Compound 203, 7-([2-fluoro-4-[3-(hydroxymethyl)pyrazol-1-yl]phenyl]amino)-N-(1-methylpiperidin-4-yl)-1,6-naphthyridine-2-sulfonamide], at CDK2/CycA2, the IC50 was above 1000 nM. Also, on CDK5/p25, the IC50 lay in the range of 100 to 1000 nM and the CDK5/CDK2 specificity entry is “+ (10-fold or less more active against CDK5 than CDK2)”.
With `N#Cc1cccc(-c2ccc(Nc3cc4nc(C(O)C5CCN(CCO)CC5)ccc4cn3)c(F)c2)c1` (single isomer, unassigned) [Compound 251, 3′-fluoro-4′-[(2-[hydroxy[1-(2-hydroxyethyl)piperidin-4-yl]methyl]-1,6-naphthyridin-7-yl)amino]-[1,1′-biphenyl]-3-carbonitrile], at CDK2/CycA2, the IC50 was above 1000 nM. For the same compound, at CDK5/p25, the half-inhibitory concentration (IC50) was in the range of 10 to 100 nM; the CDK5/CDK2 specificity result was “++ (greater than 10-fold and less than or equal to 100-fold more active against CDK5 than CDK2)”.

These data come from US20220389009A1, “SUBSTITUTED 1,6-NAPHTHYRIDINE INHIBITORS OF CDK5” (Goldfinch Bio, Inc., priority 2019, published 2022).
